We go through 4 compounds from US20110152166A1, “METHOD OF MODULATION OF PROTEIN PHOSPHORYLATION-DEPENDENT CONFORMATIONAL TRANSITIONS WITH LOW MOLECULAR WEIGHT COMPOUNDS” (priority 2006, published 2011).

Positions count from the first letter of the chain named. Read-outs that look alike come from different tables or passages of the source. Square brackets hold non-standard residues; d marks the D form. Ends that are not written are not given here. pS = N[C@@H](COP(=O)(O)O)C(=O)O

Common to all, as to assay: PDK1 activity assay with T308tide
Common to all, as to type: biochemical

The target of one test is T1, GST-PDK1 [Ile119Ala] (Homo sapiens, UniProt O15530, I119A).
T1 construct: different protein constructs, comprising the full length protein or the catalytic domain alone; made in house; host or cells: HEK293 cells (pEBG-2T-PDK1 mutant)
T1 sequence (O15530 1-556 I119A): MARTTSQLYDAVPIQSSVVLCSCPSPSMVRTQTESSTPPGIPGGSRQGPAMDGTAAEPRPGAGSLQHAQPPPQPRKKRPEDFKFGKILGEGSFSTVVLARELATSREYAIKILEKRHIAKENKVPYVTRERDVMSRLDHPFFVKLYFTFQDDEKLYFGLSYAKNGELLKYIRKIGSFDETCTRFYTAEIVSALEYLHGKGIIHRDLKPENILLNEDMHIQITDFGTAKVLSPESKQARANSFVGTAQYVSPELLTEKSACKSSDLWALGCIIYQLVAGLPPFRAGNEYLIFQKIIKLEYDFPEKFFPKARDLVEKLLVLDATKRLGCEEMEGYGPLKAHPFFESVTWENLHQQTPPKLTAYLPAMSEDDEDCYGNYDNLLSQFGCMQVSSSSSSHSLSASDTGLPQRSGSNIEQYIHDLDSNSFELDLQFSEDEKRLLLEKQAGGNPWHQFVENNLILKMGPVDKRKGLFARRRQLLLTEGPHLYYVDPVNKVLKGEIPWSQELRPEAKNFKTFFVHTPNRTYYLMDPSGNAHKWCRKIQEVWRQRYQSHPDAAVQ
Conditions: for AC50 / Max. activity: GST-PDK1 [Ile119Ala]. Here is the method:
(§1) Protein kinase activity tests were performed essentially as previously described (Balendran et al., 2000; Biondi et al., 2000; Biondi et al., 2001). Substrates used were either MBP (for PKCζ or polypeptides (Crosstide for PKB, S6K, SGK and PRK2; T308tide for PDK1, and Kemptide for PKA). PKA (Sigma) was measured in the presence of 100 μM cAMP. Alternatively, assays were performed in a 96 well format, aliquots spotted on p81 phosphocellulose papers (Whatmann), washed in 0.01% phosphoric acid, dried, and then exposed and analysed using Phospholmager technology (Storm, Molecular Dynamics). Activity measurements were performed in duplicates with less than 10% difference between duplicate pairs. Experiments were repeated at least twice, although most of the experiments were repeated multiple times, with similar results.
(§2) PDK1 activity assay was performed in a 20 μl mix containing 50 mM Tris-HCl pH 7.5, 0.05 mg/ml BSA, 0.1% β-mercaptoethanol, 10 mM MgCl2, 100 μM [γ^32P]ATP (5-50 cpm/pmol), 0.003% Brij, 150 ng PDK1, and T308tide (from 0.05 to 1 mM). PDK1 specific activity was approximately 5 U/mg (when measured at 1 mM T308tide). The effect of small compounds on PDK1 was repeated with proteins from different purification batches and with different protein constructs, comprising the full length protein or the catalytic domain alone, with similar results. […] This variability may be due to the PIFtide/compound-stimulated autophosphorylation of the activation loop in certain preparations having less than a 1:1 molar phosphorylation stoichiometry at this site.
(§3) PDK1 activity was measured at room temperature using a polypeptide substrate derived from the activation loop phosphorylation site of PKB, T308tide (0.1 mM). […] GST-PDK1 wt was purified in numerous occasions and the maximal activation level of different batches varied between 3 and 8 fold activation with PIFtide or compound 1. Variations in the basal activity and fold activation were also observed in mutants. Therefore, comparisons in the maximal level of activation between mutants should be performed with care. The data shown are from an experiment where PIFtide concentrations were tested between 50 nM and 20 µM and compound 1 concentrations were between 5 μM and 200 μM, in triplicate. AC50 and max. activity were estimated by fitting the data to a hyperbola using Kaleidagraph software. One Unit of PDK1 activity was defined as the amount required to catalyse the phosphorylation of 1 nmol of the T308tide in 1 min.

In the next test the target is T2, GST-PDK1 [Val127Leu] (Homo sapiens, UniProt O15530, V127L).
T2 construct: different protein constructs, comprising the full length protein or the catalytic domain alone; made in house; host or cells: HEK293 cells (pEBG-2T-PDK1 mutant)
T2 sequence (O15530 1-556 V127L): T1 sequence (O15530 1-556 I119A) with A119I, V127L
The following applies: for activation of PDK1 mutant (in words): PDK1[Val127Leu]. The protocol:
as §1, §2, §3

A further test has as its target T3, GST-PDK1 wt (Homo sapiens, UniProt O15530).
T3 construct: different protein constructs, comprising the full length protein or the catalytic domain alone; made in house; host or cells: HEK293 cells (pEBG-2T-PDK1)
T3 sequence (O15530 1-556): T1 sequence (O15530 1-556 I119A) with A119I
The following applies: for PDK1 (%) activity: 1% DMSO = 100%; for activation of PDK1 (in words): PDK1 wild type. Here is the method: as §1, §2, §3

Where [1] appears, read: GST-PDK1 wt, T308tide 0.1 mM, read-out: AC50.

With `O=C(O)CSC(CC(=O)c1ccc(Cl)cc1)c1ccccc1` (stereo not shown) [Compound 1], the half-maximal activity concentration (AC50) is 90 ± 20 µM at GST-PDK1 [Ile119Ala]; “No Effect” at GST-PDK1 [Val127Leu] (GST-PDK1 [Val127Leu]); 25 µM on GST-PDK1 wt (FIG. 2B, read-out: AC50 of PDK1 activation); 34 ± 9 µM at GST-PDK1 wt (setting [1]). Further, the Max. activity at GST-PDK1 [Ile119Ala] is given as 2.1 ± 0.23 U/mg; on GST-PDK1 wt (GST-PDK1 wt, T308tide 0.1 mM), 1.1 ± 0.07 U/mg. The “PDK1 (%) activity” value on GST-PDK1 wt (20 μM compound) came out at 234%; at GST-PDK1 wt (200 μM compound) it was 370%. In addition, the “activation of PDK1 (in words)” value at GST-PDK1 wt is “activated PDK1”.
Regarding `COC(=O)CSC(CC(=O)c1ccc(Cl)cc1)c1ccccc1` (stereo not shown) [Compound 2], the “PDK1 (%) activity” value at GST-PDK1 wt (20 μM compound) is on record as 109%; at GST-PDK1 wt (200 μM compound), 124%. In addition, on GST-PDK1 wt, the “activation of PDK1 (in words)” value was “inactive”.
In the case of “P-HM-RSK: phosphorylated HM polypeptide of RSK: KGAGGGGFRGFS(P)FVA (KGAGGGGFRGF[pS]FVA)”, the “activation of PDK1 mutant (in words)” value was “completely abolished” with GST-PDK1 [Ile119Ala] (Ile119 mutant, P-HM-RSK 20 μM) and “fully activated” in the test with GST-PDK1 [Val127Leu]. For the same compound, the “activation of PDK1 (in words)” value with GST-PDK1 wt is “activated”.
With “REPRILSEEEQEMFRDFDYIADWC [PIFtide, reference compound]”, the AC50 at GST-PDK1 [Ile119Ala] stood at 0.66 ± 0.14 µM; on GST-PDK1 [Val127Leu] (GST-PDK1 [Val127Leu], read-out: AC50), 0.12 ± 0.03 µM; on GST-PDK1 wt (setting [1]), 0.11 ± 0.03 µM. Moreover, the Max. activity at GST-PDK1 [Ile119Ala] was 2.58 ± 0.17 U/mg; at GST-PDK1 [Val127Leu] (GST-PDK1 [Val127Leu]), 0.99 ± 0.08 U/mg; on GST-PDK1 wt (GST-PDK1 wt, T308tide 0.1 mM), 0.9 ± 0.05 U/mg. Besides, at GST-PDK1 [Val127Leu], the “activation of PDK1 mutant (in words)” value is recorded as “fully activated”.

One may read the AC50 as the midpoint of the concentration-response curve, whichever way the signal moves.
